Assay results published in patent publication US10689345B2, “1-cyano-pyrrolidine compounds as USP30 inhibitors” (Mission Therapeutics Limited, priority 2015, dated 2020).

Target: USP30 (Homo sapiens (Human), UniProt Q70CQ3)
Assay: USP30 biochemical FP (fluorescence polarisation) IC50 assay
Settings: USP30 biochemical FP or FI IC50 assay (table does not say which per compound); read-out: IC50 range
Experimental: In Vitro USP30 FP Inhibition Assay
USP30 Biochemical IC50 Assay
Dilution plates were prepared at 21 times the final concentration (2100 μM for a final concentration of 100 μM) in 50% DMSO in a 96-well polypropylene V-bottom plate (Greiner #651201). A typical 8-point dilution series would be 100, 30, 10, 3, 1, 0.3, 0.1, 0.03 μM final. Reactions were performed in duplicate in black 384 well plates (small volume, Greiner 784076) in a final reaction volume of 21 μl. Either 1 μl of 50% DMSO or diluted compound was added to the plate. USP30 was diluted in reaction buffer (40 mM Tris, pH 7.5, 0.005% Tween 20, 0.5 mg/ml BSA, 5 mM beta-mercaptoethanol) to the equivalent of 0.05 μl/well and 10 μl of diluted USP30 was added to the compound. Enzyme and compound were incubated for 30 min at room temp. Reactions were initiated by the addition of 50 nM of TAMRA labelled peptide linked to ubiquitin via an iso-peptide bond as fluorescence polarisation substrate. Reactions were read immediately after addition of substrate and following a 2 hr incubation at room temperature. Readings were performed on a Pherastar Plus (BMG Labtech). λ Excitation 540 nm; λ Emission 590 nm.

Chain of USP30 (Q70CQ3 57-517): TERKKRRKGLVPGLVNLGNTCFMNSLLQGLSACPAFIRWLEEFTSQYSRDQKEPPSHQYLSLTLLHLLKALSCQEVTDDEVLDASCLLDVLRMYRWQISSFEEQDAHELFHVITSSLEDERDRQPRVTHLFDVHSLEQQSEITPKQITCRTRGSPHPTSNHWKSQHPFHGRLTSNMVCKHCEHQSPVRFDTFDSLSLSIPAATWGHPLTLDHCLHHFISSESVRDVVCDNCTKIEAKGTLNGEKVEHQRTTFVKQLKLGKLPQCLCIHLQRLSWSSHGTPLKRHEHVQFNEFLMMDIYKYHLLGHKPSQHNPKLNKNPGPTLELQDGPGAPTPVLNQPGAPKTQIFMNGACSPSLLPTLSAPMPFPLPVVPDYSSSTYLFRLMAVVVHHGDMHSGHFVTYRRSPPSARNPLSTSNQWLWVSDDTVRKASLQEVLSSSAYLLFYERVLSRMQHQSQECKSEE

Row | Compound | IC50 [nM]
1 | Cn1cc(-c2ccc3nc(C(=O)N[C@@H]4CCN(C#N)C4)c(F)n3c2)cn1 [Example 168, (R)-N-(1-cyanopyrrolidin-3-yl)-3-fluoro-6-(1-methyl-1H-pyrazol-4-yl)imidazo [1,2-a]pyridine-2-carboxamide] | 100 to 1000
2 | N-((R)-1-cyanopyrrolidin- 3-yl)-((2S,6R)-2,6- dimethylmorpholino)-5- fluoroisonicotinamide [Example 140] | 100 to 1000
3 | Cn1cc(-c2ccc(C(=O)N[C@@H]3CCN(C#N)C3)c(F)c2F)cn1 [Example 131, (R)-N-(1-cyanopyrrolidin-3-yl)-2,3-difluoro-4-(1-methyl-1H-pyrazol-4-yl)benzamide] | < 100
4 | N#CN1CCC(NC(=O)Nc2ccc(-c3ccccc3)cc2)C1 (stereo not drawn) [Example 254, 1-([1,1′-biphenyl]-4-yl)-3-(1-cyanopyrrolidin-3-yl)urea] | < 100

The remaining lines, values ahead:

Row | IC50 [nM] | Compound
5 | 100 to 1000 | (R)-N-(1-cyanopyrrolidin- 3-yl)-2-fluoro-3-(1-methyl- 1H-pyrazol-yl)benzamide [Example 104]
6 | < 100 | Cc1noc(C)c1-c1ccc2cc(C(=O)N(C)[C@@H]3CCN(C#N)C3)[nH]c2c1 [Example 262, (R)-N-(1-cyanopyrrolidin-3-yl)-6-(3,5-dimethylisoxazol-4-yl)-N-methyl-1H-indole-2-carboxamide]
7 | 100 to 1000 | N#CN1C[C@H](NC(=O)c2ccc(-c3ccccc3)cc2)[C@@H](F)C1 (relative stereo) [Example 176, N-((trans)-1-cyano-4-fluoropyrrolidin-3-yl)-[1,1′-biphenyl]-4-carboxamide]
8 | < 100 | N#CN1CC[C@@H](NC(=O)c2cc(-c3ccc(Cl)cc3)no2)C1 [Example 218, (R)-3-(4-chlorophenyl)-N-(1-cyanopyrrolidin-3-yl)isoxazole-5-carboxamide]
9 | 100 to 1000 | N#CN1CC[C@@H](NC(=O)c2cc(F)c(N3CCOCC3)cc2F)C1 [Example 144, (R)-N-(1-cyanopyrrolidin-3-yl)-2,5-difluoro-4-morpholinobenzamide]
